Reference: the NIST ThermoML archive (doi:10.1021/je7003758)

Assay: xn = mol fraction of the nth substance listed
Settings: 298.15 K, Liquid

CCCCCCCl [1-chlorohexane] + CN1CCCC1=O
mass density [kg/m3]
Settings | x2 = 0.1003 | x2 = 0.1988 | x2 = 0.305 | x2 = 0.4005 | x2 = 0.5007 | x2 = 0.5974 | x2 = 0.7016 | x2 = 0.8002 | x2 = 0.8995
100 kPa | 884.9 | 897 | 911 | 924.2 | 938.9 | 954.1 | 971.5 | 988.7 | 1007.4
500 kPa | 885.2 | 897.3 | 911.2 | 924.5 | 939.2 | 954.4 | 971.7 | 988.9 | 1007.6
1000 kPa | 885.5 | 897.6 | 911.6 | 924.9 | 939.5 | 954.6 | 972.1 | 989.2 | 1007.9
1500 kPa | 886 | 898.1 | 912 | 925.3 | 939.9 | 955 | 972.4 | 989.5 | 1008.2
1900 kPa | – | – | 912.3 | – | – | – | – | – | –
2000 kPa | 886.4 | 898.4 | – | 925.6 | 940.2 | 955.3 | 972.7 | 989.8 | 1008.4
2500 kPa | 886.8 | 898.9 | 912.8 | 926 | 940.6 | 955.7 | 973 | 990.1 | 1008.7
3000 kPa | 887.2 | 899.2 | 913.2 | 926.4 | 941 | 956 | 973.4 | 990.4 | 1009
3500 kPa | 887.7 | 899.6 | 913.6 | 926.8 | 941.3 | 956.2 | 973.7 | 990.6 | 1009.3
4000 kPa | 888 | 900 | – | 927.1 | 941.6 | 956.6 | 974 | 991 | 1009.6
4100 kPa | – | – | 914 | – | – | – | – | – | –
4500 kPa | 888.4 | 900.4 | 914.3 | – | 942 | 956.9 | 974.3 | 991.2 | 1009.8
4600 kPa | – | – | – | 927.5 | – | – | – | – | –
4900 kPa | 888.7 | – | – | – | – | – | – | – | –
5000 kPa | – | 900.8 | 914.6 | 927.8 | 942.3 | 957.3 | 974.6 | 991.5 | 1010.1
5500 kPa | 889.2 | 901.2 | 915 | 928.2 | 942.7 | 957.6 | 974.8 | 991.8 | 1010.4
5900 kPa | 889.6 | – | – | – | – | – | – | – | –
6000 kPa | – | 901.6 | 915.4 | 928.6 | 943 | 958 | 975.2 | 992.2 | 1010.7
6500 kPa | 890.1 | 902 | 915.8 | 928.9 | 943.3 | 958.3 | 975.5 | 992.4 | 1011
7000 kPa | 890.4 | 902.4 | 916.2 | 929.2 | 943.7 | 958.6 | 975.8 | 992.7 | 1011.2
7400 kPa | – | 902.7 | – | – | – | – | – | – | –
7500 kPa | 890.8 | – | 916.6 | 929.6 | 944 | 958.9 | 976.1 | 993.1 | 1011.5
8000 kPa | 891.2 | 903.1 | 917 | 929.9 | 944.3 | 959.2 | 976.4 | 993.3 | 1011.8
8400 kPa | 891.6 | – | 917.2 | – | – | – | – | – | –
8500 kPa | – | – | – | 930.3 | 944.7 | 959.5 | 976.7 | 993.6 | 1012
8600 kPa | – | 903.6 | – | – | – | – | – | – | –
8900 kPa | 892 | – | – | – | 945 | 959.8 | – | – | –
9000 kPa | – | 903.8 | 917.7 | 930.7 | – | – | 977 | 993.9 | 1012.3
9400 kPa | – | – | – | 930.9 | – | – | – | – | –
9500 kPa | 892.4 | 904.2 | 918.1 | – | 945.3 | 960.1 | 977.3 | 994.2 | 1012.6
9900 kPa | – | – | – | – | – | – | 977.7 | – | –
10000 kPa | 892.9 | 904.7 | 918.6 | 931.4 | 945.7 | 960.5 | – | 994.5 | 1012.9
10500 kPa | 893.2 | 905.1 | 918.8 | 931.7 | 946 | 960.8 | 978 | 994.8 | 1013.2
11000 kPa | 893.5 | 905.4 | 919.2 | 932.1 | 946.4 | 961.1 | 978.3 | 995.1 | 1013.5
11400 kPa | 893.9 | – | – | – | – | 961.4 | – | – | –
11500 kPa | – | 905.8 | 919.6 | 932.4 | 946.8 | – | 978.6 | 995.4 | 1013.8
11900 kPa | – | – | – | – | 947 | – | 978.9 | – | –
12000 kPa | 894.3 | 906.2 | 919.9 | 932.8 | – | 961.8 | – | 995.7 | 1014
12400 kPa | – | 906.5 | – | – | – | – | – | 995.9 | 1014.2
12500 kPa | 894.7 | – | 920.2 | 933.1 | 947.3 | 962.2 | – | – | –
12600 kPa | – | – | – | – | – | – | 979.2 | – | –
12900 kPa | – | – | – | – | – | – | 979.4 | – | –
13000 kPa | 895.1 | 907.1 | 920.6 | 933.4 | 947.7 | 962.4 | – | 996.3 | 1014.5
13400 kPa | – | 907.3 | – | – | 948 | – | 979.7 | 996.5 | –
13500 kPa | 895.5 | – | 921 | 933.8 | – | 962.6 | – | – | 1014.8
13900 kPa | – | – | – | – | 948.3 | – | – | – | –
14000 kPa | 895.9 | 907.7 | 921.3 | 934.1 | – | 963.1 | 980.1 | 996.8 | 1015.1
14400 kPa | – | – | 921.6 | 934.4 | – | – | – | – | –
14500 kPa | 896.3 | 908 | – | – | 948.6 | 963.4 | 980.3 | 997.1 | 1015.4
15000 kPa | 896.6 | 908.4 | 922 | 934.8 | 949 | 963.7 | 980.7 | 997.4 | 1015.6
15400 kPa | 896.9 | – | – | – | – | – | – | – | –
15500 kPa | – | 908.7 | 922.3 | 935.1 | 949.3 | 964 | 981 | 997.6 | 1015.8
15900 kPa | – | – | – | – | – | 964.2 | – | – | –
16000 kPa | 897.4 | 909 | 922.7 | 935.4 | 949.6 | – | 981.3 | – | 1016.1
16100 kPa | – | – | – | – | – | – | – | 998 | –
16500 kPa | 897.7 | 909.4 | 923 | 935.7 | 949.9 | 964.6 | 981.5 | 998.2 | 1016.4
16900 kPa | – | 909.7 | – | – | – | 964.8 | – | – | 1016.6
17000 kPa | 898 | – | 923.4 | 936 | 950.2 | – | 981.8 | 998.4 | –
17400 kPa | – | – | – | – | 950.5 | – | 982 | – | –
17500 kPa | 898.4 | 910.1 | 923.6 | – | – | 965.1 | – | 998.8 | 1016.9
17600 kPa | – | – | – | 936.5 | – | – | – | – | –
18000 kPa | 898.8 | 910.5 | 924 | 936.7 | 950.8 | 965.4 | 982.3 | 999 | 1017.1
18400 kPa | – | – | – | 937 | 951.1 | – | – | – | –
18500 kPa | 899.1 | 910.9 | 924.3 | – | – | 965.7 | 982.7 | 999.2 | –
18700 kPa | – | – | – | – | – | – | – | – | 1017.5
19000 kPa | 899.5 | 911.3 | 924.7 | 937.4 | 951.5 | 966 | 983 | 999.6 | 1017.8
19500 kPa | 899.8 | 911.6 | 925 | 937.8 | 951.8 | 966.3 | 983.3 | 999.8 | 1017.9
20000 kPa | 900.3 | 912 | 925.4 | 938.2 | 952.2 | 966.7 | 983.8 | 1000.2 | 1018.3
